Laboratory results taken from BindingDB's records for PubMed 35114538 (Institute For Pharmaceutical Research Saarland (Hips), 2022).
Where a SMILES comes first, the peptide text is derived from it. Bridges are numbered along the chain shown (N, C = ends). Triazole bridges read from a SMILES are 1,4-linked. [ ]: non-standard residue; d: D form. Ala(indol-2-yl) = N[C@@H](Cc1cc2ccccc2[nH]1)C(=O)O; Dap(N3) = [N-]=[N+]=NC[C@H](N)C(=O)O; Aha = [N-]=[N+]=NCC[C@H](N)C(=O)O; Pra = C#CC[C@H](N)C(=O)O

Molecular target: Carbon storage regulator homolog RsmA (Pseudomonas aeruginosa)
Experiment: Binding affinity towards Pseudomonas aeruginosa RsmA measured by fluorescence polarization assay

SMILES | IC50 [µM]
CC(=O)N[C@H](C(=O)N[C@H]1Cc2cnnn2CC[C@@H](C(=O)N[C@@H](Cc2c[nH]c3ccccc23)C(N)=O)NC(=O)[C@H](CC(C)C)NC(=O)[C@H](CCC(=O)O)NC(=O)[C@H](CO)NC1=O)C(C)C | 44.4
CC(=O)N[C@H](C(=O)N[C@H]1CCn2nncc2C[C@@H](C(=O)N[C@@H](Cc2c[nH]c3ccccc23)C(N)=O)NC(=O)[C@H](CC(C)C)NC(=O)[C@H](CCC(=O)O)NC(=O)[C@H](CO)NC1=O)C(C)C | 37
CC(=O)N[C@H](C(=O)N[C@H]1CSSC[C@@H](C(=O)N[C@@H](Cc2cc3ccccc3[nH]2)C(N)=O)NC(=O)[C@H](CC(C)C)NC(=O)[C@H](CCC(=O)O)NC(=O)[C@H](CO)NC1=O)C(C)C (Ac-VCSELC[Ala(indol-2-yl)]-NH2; disulfide 2-6) | 272
CC(=O)N[C@H](C(=O)N[C@H]1Cn2cc(nn2)C[C@@H](C(=O)N[C@@H](Cc2c[nH]c3ccccc23)C(N)=O)NC(=O)[C@H](CC(C)C)NC(=O)[C@H](CCC(=O)O)NC(=O)[C@H](CO)NC1=O)C(C)C (Ac-V[Dap(N3)]SEL[Pra]W-NH2; triazole 2-6) | 22.8
CC(=O)N[C@H](C(=O)N[C@H]1Cc2cn(nn2)CC[C@@H](C(=O)N[C@@H](Cc2c[nH]c3ccccc23)C(N)=O)NC(=O)[C@H](CC(C)C)NC(=O)[C@H](CCC(=O)O)NC(=O)[C@H](CO)NC1=O)C(C)C (Ac-V[Pra]SEL[Aha]W-NH2; triazole 2-6) | 30.2
CC(=O)N[C@H](C(=O)N[C@H]1Cc2cn(nn2)C[C@@H](C(=O)N[C@@H](Cc2c[nH]c3ccccc23)C(N)=O)NC(=O)[C@H](CC(C)C)NC(=O)[C@H](CCC(=O)O)NC(=O)[C@H](CO)NC1=O)C(C)C (Ac-V[Pra]SEL[Dap(N3)]W-NH2; triazole 2-6) | 20
